Laboratory results taken from PMC8422859, “A Novel Oral Arginase 1/2 Inhibitor Enhances the Antitumor Effect of PD-1 Inhibition in Murine Experimental Gliomas by Altering the Immunosuppressive Environment” (Frontiers in Oncology, 2021).

Tests used:
[1] = system: L-arginine (substrate of arginase); test: L-arginine concentration in brain and plasma by LC-MS; type: in vivo, mouse; settings: GL261-bearing mice, 50 mg/kg oral twice a day, day 14, 2 h after last dose
Experimental: (§1) Blood plasma, as well as the brain samples (from control and treated animals), were prepared for liquid chromatography coupled with mass spectrometry (LC-MS) by homogenization in 5% trichloroacetic acid (TCA) and the concentration of L-arginine – the substrate of arginase – was determined. In the urea cycle, arginase cleaves arginine to produce urea and ornithine. Ornithine reacts with carbamoyl phosphate to form citrulline. The brain homogenates prepared for arginine measurements, as well as plasma samples were also analyzed by LC-MS to determine the concentration of the drug, which was administered to animals 2 h before the euthanasia.

[2] = Drug concentration in brain by LC-MS; type: in vivo, mouse; settings: GL261-bearing mice, 50 mg/kg oral twice a day, 14 days, 2 h after last dose
Experimental: as §1

Q: Which “arginine concentration in the blood plasma” value [1] does the source give for `CN(C)C[C@@H]1CC[C@@H](CCB(O)O)C[C@]1(N)C(=O)O` [OAT-1746] here?
A: The value was “increase of arginine concentration”.

Q: What about the “arginine concentration in the brain” value [1] of the same compound?
A: The value was “increase of arginine concentration”.

Q: What about the “OAT-1746 in the brain (crossing of the BBB)” value [2] of the same compound?
A: Its value is “detected in the brain extracts”.
